Read-outs that look alike come from different tables or passages of the source.
How the values were obtained:
HCT116 cells [1] = test: Acridine orange/Ethidium bromide (AO/EB) staining; assay type: cell-based, human; settings: HCT116, 48 h, mean ± SEM of 100 cells
Description: AO/EB dual staining was performed in order to determine the apoptosis inducing potential of the selected test compounds in HCT116 cell line with few modifications (Kumar et al., 2016[9]). In brief, 5 × 10^5 cells were seeded in 6 wells plate containing 2 ml of medium and incubated for 24 h. After 24 h, cells were treated with the test compounds and incubated for 48 h. After 48 h of incubation, the wells were washed with phosphate buffer saline (PBS) and cells were fixed with ice cold ethanol (70 %) for 30 min. Ethanol was then removed and cells were washed again with PBS followed by the addition of 200 µl of AO/EB (20/30 µg/ml) stain in each well. The plate was later kept in the dark for 20 min. The excess stain was further washed thrice with PBS and observed for their fluorescence under a fluorescent microscope (Eclipse TS100-F, Nikon Instruments Inc., Melville, NY, USA).

HCT116 cells [2] = test: Annexin V assay (Muse Cell Analyzer); assay type: cell-based, human; settings: HCT116, 48 h; 5-FU 20 μM, C1 25 μM, C2 70 μM, C3 70 μM
Description: Apoptosis determination by Annexin V staining was carried out using Muse Cell Analyzer with the kit provided by the manufacturer Merck Millipore. In brief, 1 × 10^6 cells were seeded in 60 mm tissue culture dish and after overnight adherence test compounds were added and incubated. After 48 h the cells were detached by trypsinization, centrifuged and resuspended. 100 µl of cell suspension was added with 100 µl of Annexin V reagent and incubated for 20 min at room temperature following which the cells were analyzed for apoptosis.

[3] = system: DMH induced colorectal carcinoma; test: DMH (1,2-dimethyl hydrazine) induced colon cancer in Wistar rats; assay type: in vivo; settings: test compounds 100 mg/kg p.o., 5-FU 10 mg/kg i.p., 21 days; for TNF-α level in colon homogenate: ELISA, DMH control 20.2 ± 0.8, normal control 0.8 ± 0.1; for No. of ACF/5 cm^2: colon tissue, DMH control 81.6 ± 1.4; for No. of ACF/5 cm^2 / No. of adenocarcinoma: mean ± SEM, n=6; for No. of adenocarcinoma: entire colon, DMH control 15 ± 1.2
Description: Test compound: Three test compounds, namely C1, C2 & C3 were suspended in 0.25 % sodium carboxy methyl cellulose (CMC) and were administered orally (p.o) with a dosing volume of 10 ml/kg.
Standard drug: 5-Fluorouracil (5-FU) was used as standard. It was procured in the form of injection and administered intraperitoneally (i.p) with a dosing volume of 10 ml/kg.
Induction of colon cancer was achieved using DMH according to a previously described procedure with few modifications (Perše and Cerar, 2005[15]). DMH at a dose of 30 mg/kg was administered i.p once a week for 20 weeks. The incidence of aberrant crypt foci (ACFs) and adenocarcinoma were confirmed by sacrificing a few of the animals after 20 weeks confirming the induction of colon cancer in experimental animals. Finally, the animals were randomized into five experimental groups based on their body weight.
Group 1 (normal control): Animals (n=6) were administered 0.25 % CMC in water p.o.
Group 2 (DMH control): Animals (n=6) were administered DMH
Group 3 (standard drug): Animals (n=6) received 5-FU 10 mg/kg i.p. for 21 days of study period
Group 4 (C1): Animals (n=6) received C1 at 100 mg/kg p.o for 21 days
Group 5 (C2): Animals (n=6) received C2 at 100 mg/kg p.o. for 21 days.
Group 6 (C3): Animals (n=6) received C3 at 100 mg/kg p.o. for 21 days.
The distal part of the colon, which was removed from the experimental animals after the study period was cut open and placed flat on a filter paper and fixed with 10 % buffered formalin for 12 h. Further, it was stained with 0.1 % methylene blue in PBS for 5 min. Specimens were later observed under microscope for ACF formation and were calculated as the number of counts/5 cm^2 in colon tissue. The entire colon was considered to study the incidence of adenocarcinoma. The growth was critically observed and the count and size were noted from each animal.
The levels of TNF-α were estimated in the colon of experimental animals, for which 10 % homogenate of colon tissue was prepared in tissue lysis buffer. The homogenate was centrifuged and the supernatant was collected to measure TNF-α levels using commercially available ELISA kits of rat TNF-α (# KRC3011, Invitrogen).
Length of the isolated colon was measured in centimeters and weight was measured in g. The colon length/weight (L/W) ratio was then calculated. Isolated spleen, kidney and heart of the experimental animals were also weighed in g and respective index was calculated.
Histopathology was carried out according to the described procedure (Reddy et al., 2015[18]). The stained slides were then analyzed under a microscope for any anatomical changes.
All the values were expressed as mean ± SEM of 6 animals. Data were analyzed using one-way ANOVA followed by Tukey's multiple comparison tests using Prism 5.03 (Graph Pad Software Inc., La Jolla, CA, USA). Values of p < 0.05 were considered to be significant.

HCT116 cells [4] = test: MTT cytotoxicity assay on HCT116; assay type: cell-based; settings: Homo sapiens
Description: (§1) Human colorectal carcinoma (HCT116) and African green monkey kidney epithelial cells (VERO) were procured from the National Centre for Cell Science, Pune, MH, India. The cells were maintained in Dulbecco's Modified Eagle's Medium (DMEM) (Sigma-Aldrich Co. LLC, ST. Louis, Mo, USA) supplemented with 10 % Fetal Bovine Serum (FBS) (HiMedia Laboratories, Mumbai, India) and 1 × Penicillin/Streptomycin at 37 °C in CO2 incubator (NU-5501 E/G, NuAire Inc., Plymoth, MN, USA) in humidified atmosphere of 5 % CO2 and 95 % air. The cells were maintained by routine sub-culturing in 25 cm^2 tissue culture flasks.
(§2) Cytotoxic potential of the test compounds were assessed using MTT assay (Kumar et al., 2016[9]). In brief, HCT116 and Vero cells were harvested from confluent flask and seeded (5 × 10^4 cells/well) in 96 well plates. After 24 h of incubation, the cells were exposed to different concentration of the test compounds for 48 h. Further, 50 µl of MTT reagent (HiMedia Laboratories, Mumbai, India) (2 mg/ml in sterile PBS) was added into each well after 48 h and incubated for 3 more h. The formazan crystals formed were solubilized using 100 % DMSO and the optical density was measured at 540 nm using micro plate reader (ELx800, BioTek Instruments Inc., Winooski, VT, USA).

Vero cells = test: MTT cytotoxicity assay on Vero; assay type: cell-based, African green monkey; settings: Chlorocebus sabaeus, 48 h exposure
Description: as §1, §2

[5] = system: histone deacetylase (HDAC) enzyme; test: Whole cell HDAC enzyme assay; assay type: cell-based, human; settings: HCT116 cells
Description: HCT116 cells were harvested and seeded in 96 well sterile, black well plates at 2 × 10^4 cells/well and incubated overnight. Further, the cells were treated with different concentration of the test compounds for a period of 18 h. Then, 15 mM Boc-Lys(Ac)-AMC substrate (Sigma Aldrich # SCP0168) was added and incubated for 1 h. The reaction was terminated by the addition of 50 µL of stop solution (trypsin 2 mg/ml, 1 % NP40, […]) in HDAC assay buffer (25 mM Tris-HCl (pH 8.0), 137 mM NaCl, 2.7 mM KCl, 1 mM MgCl2). The reaction was then allowed to proceed for 15 min at 37 °C after which, the fluorescence was measured at 360 nm excitation and 460 nm emission using fluorescence micro plate reader (FLx800, BioTek Instruments Inc., Winooski, VT, USA) (Reddy et al., 2015[18]).

HCT116 cells [6] = test: Cell cycle analysis (propidium iodide, flow cytometry); assay type: cell-based, human; settings: HCT116, 48 h treatment; for Cells in G2/M phase (M3): normal control 18.2 %
Description: The ability of the test compounds to arrest any phase of the cell cycle was determined using the described procedure (Reddy et al., 2015[18]). In this method, HCT116 cells were harvested and seeded at a density of 1 × 10^6 cell in 60 mm petri plate and incubated for 24 h. After 24 h cells were treated with test compounds for 48 h. Then the cells were washed with PBS, trypsinized and centrifuged. The cell pellets were later fixed in 70 % ice cold ethanol and stored at -20 °C for 24 h. After fixing, the pellet was dislodged in PBS and stained with propidium iodide solution. The cells were then analyzed using Accuri C6 flow cytometer with the threshold levels adjusted to remove the debris (BD Biosciences, San Jose, CA, USA) and data analysis were performed using BD Accuri™ C6 software.

[7] = HCT-116, 48 h exposure, read-out: IC50 Value HCT116
[8] = 18 h treatment, mean ± SEM, triplicate, read-out: IC50 whole cell HDAC enzyme inhibition
[9] = read-out: IC50 inhibition of HDAC (unit inferred)
[10] = HCT-116, 48 h of treatment, read-out: IC50 value on HCT116 cells

Structure (SMILES) | % apoptotic cells (AO/EB staining) (HCT116 cells [1]) [%] | Early Apop. (Annexin V) (HCT116 cells [2]) [%] | Total apoptotic cells (Annexin V) (HCT116 cells [2]) | TNF-α level in colon homogenate [3] | No. of ACF/5 cm^2 [3] | No. of adenocarcinoma [3] | IC50 (HCT116 cells [4]; [7]) [µM] | IC50 (Vero cells) [µM] | IC50 [5, 8] [µM] | IC50 [5, 9] [µM] | Cells in G2/M phase (M3) (HCT116 cells [6]) [%] | IC50 (HCT116 cells [4]; [10]) [µM] | Cells in S phase (M2) (HCT116 cells [6]; normal control 9.5 %) [%] | IC50 (HCT116 cells [4]; HCT-116, 48 h, 48 h exposure, read-out: IC50 Value HCT116) [µM]
O=c1[nH]cc(F)c(=O)[nH]1 [5-FU, 5-Fluorouracil, reference compound] | 45 ± 0.87 | 15.86 | 38.08 % of total cells | 16.09 ± 1.9 | 42.3 ± 1.4 /5 cm^2 | 7 ± 0.5 |  |  |  |  |  |  |  | 
O=C(O)c1ccc(C=CC(=O)c2c(O)cccc2O)cc1 [C6, 4-[3-(2,6-Dihydroxy-phenyl)-3-oxo-propenyl]-benzoic acid] |  |  |  |  |  |  | > 500 | > 500 | 826 ± 58.1 |  |  |  |  | 
Cc1ccc(/C=C/C(=O)c2ccccc2O)cc1 [C1, 1-(2-Hydroxy-phenyl)-3-p-tolyl-propenone] | 42.4 ± 2.25 | 5.85 | 37.70 % of total cells | 6.18 ± 2.5 | 54.0 ± 0.5 /5 cm^2 | 10 ± 0.8 |  | 26.3 | 105 | < 500 | 25 |  |  | 
O=C(O)c1ccc(C=CC(=O)c2ccccc2O)cc1 [C3, 4-[3-(2-Hydroxy-phenyl)-3-oxo-propenyl]-benzoic acid] | 38.7 ± 0.94 |  | 31.80 % of total cells |  | 73.6 ± 0.8 /5 cm^2 |  | 117 | 178 | 929 ± 56.6 |  |  | < 200 | 12 | 
CN(C)c1ccc(/C=C/C(=O)c2ccc(O)cc2O)cc1 [C5] |  |  |  |  |  |  |  |  | 160 ± 15.5 | < 500 |  |  |  | 
O=C(/C=C/c1ccc(O)cc1)c1ccccc1O [C2, 3-(4-Hydroxy-phenyl)-1-(2-hydroxy-phenyl)-propenone] | 40 ± 2.5 | 18 | 36.60 % of total cells |  | 60.0 ± 1.1 /5 cm^2 |  | 81.4 | 88.3 | 394 ± 12.9 | < 500 | 19.5 | < 200 |  | 
O=C(CCCCCCC(=O)Nc1ccccc1)NO [SAHA, reference compound] |  |  |  |  |  |  |  |  | 3.6 ± 0.2 |  |  |  |  | 
CN(C)c1ccc(/C=C/C(=O)c2ccccc2O)cc1 [C4, 3-(4-Dimethylamino-phenyl)-1-(2-hydroxy-phenyl)-propenone] |  |  |  |  |  |  |  | > 500 | 470 ± 11 | < 500 |  |  |  | > 500
